In US11958835B1, “6-(6-bromo-2-oxo-2H-chromen-3-yl)-4-(4-chlorophenyl)-2-alkoxynicotinonitrile as antimicrobial agents” (KING FAISAL UNIVERSITY, priority 2023, dated 2024):

The molecules below were run on Bacillus cereus (assay: agar plate disc-diffusion, antibacterial, Bacillus cereus). Settings: A = concentration of comp. = 10,000 μL; DMSO control zone subtracted.
Type: cell-based
Experimental: (§1) The agar plate disc-diffusion method was applied. Sterilized filter papers (6 mm in diameter) were wetted with 10 μL of a solution of 6-(6-bromo-2-oxo-2H-chromen-3-yl)-4-(4-chlorophenyl)-2-ethoxynicotinonitrile (1) and 6-(6-bromo-2-oxo-2H-chromen-3-yl)-4-(4-chlorophenyl)-2-methoxynicotinonitrile (2) to be tested, containing […], and the discs were allowed to air dry. The discs were then placed onto the surface of agar plates (nutrient agar for bacteria and Sabouraud's dextrose agar for fungi) seeded with the test organism. Each plate contained 15 mL of the agar medium, previously seeded with 0.2 mL of the broth culture of each organism pregrown for 18 hours. The plates were incubated at 37° C. for 48 hours, and 72 hours for fungi. The inhibition zones were measured in millimeters. Discs impregnated with DMSO were used as a control, and its inhibition zone was subtracted from the tested compound actual inhibition zone.
(§2) Their antibacterial screened against gram positive bacteria namely Bacillus cereus and Staphylococcus aureus and gram-negative bacterial strains namely Pseudomonas aeruginosa and Escherichia coli, while their antifungal activity screened against Aspergillus flavus and Chrysosporium keratinophilum as shown in Tables 1 and 2 using ciprofloxacin as a reference.

Compound	inhibition zone, Bacillus Cereus, A [millimeters]
CCOc1nc(-c2cc3cc(Br)ccc3oc2=O)cc(-c2ccc(Cl)cc2)c1C#N [Compound 1, 6-(6-bromo-2-oxo-2H-chromen-3-yl)-4-(4-chlorophenyl)-2-ethoxynicotinonitrile]	15
O=C(O)c1cn(C2CC2)c2cc(N3CCNCC3)c(F)cc2c1=O [Cip., ciprofloxacin, reference compound]	29

Same assay, conditions: B = concentration of comp. = 30.000 μL; DMSO control zone subtracted

Compound	inhibition zone, Bacillus Cereus, B [millimeters]
CCOc1nc(-c2cc3cc(Br)ccc3oc2=O)cc(-c2ccc(Cl)cc2)c1C#N [Compound 1, 6-(6-bromo-2-oxo-2H-chromen-3-yl)-4-(4-chlorophenyl)-2-ethoxynicotinonitrile]	20
O=C(O)c1cn(C2CC2)c2cc(N3CCNCC3)c(F)cc2c1=O [Cip., ciprofloxacin, reference compound]	30

Same assay, conditions: C = concentration of comp. = 50,000 μL; DMSO control zone subtracted

Compound	inhibition zone, Bacillus Cereus, C [millimeters]
CCOc1nc(-c2cc3cc(Br)ccc3oc2=O)cc(-c2ccc(Cl)cc2)c1C#N [Compound 1, 6-(6-bromo-2-oxo-2H-chromen-3-yl)-4-(4-chlorophenyl)-2-ethoxynicotinonitrile]	29
O=C(O)c1cn(C2CC2)c2cc(N3CCNCC3)c(F)cc2c1=O [Cip., ciprofloxacin, reference compound]	42

These molecules were tested on Staphylococcus aureus (assay: agar plate disc-diffusion, antibacterial, Staphylococcus aureus). Settings: A = concentration of comp. = 10,000 μL; DMSO control zone subtracted.
Type: cell-based
Experimental: as §1, §2

Compound	inhibition zone, Staphylococcus aureus, A [millimeters]
CCOc1nc(-c2cc3cc(Br)ccc3oc2=O)cc(-c2ccc(Cl)cc2)c1C#N [Compound 1, 6-(6-bromo-2-oxo-2H-chromen-3-yl)-4-(4-chlorophenyl)-2-ethoxynicotinonitrile]	18
O=C(O)c1cn(C2CC2)c2cc(N3CCNCC3)c(F)cc2c1=O [Cip., ciprofloxacin, reference compound]	43

Same assay, conditions: B = concentration of comp. = 30.000 μL; DMSO control zone subtracted

Compound	inhibition zone, Staphylococcus aureus, B [millimeters]
CCOc1nc(-c2cc3cc(Br)ccc3oc2=O)cc(-c2ccc(Cl)cc2)c1C#N [Compound 1, 6-(6-bromo-2-oxo-2H-chromen-3-yl)-4-(4-chlorophenyl)-2-ethoxynicotinonitrile]	22
O=C(O)c1cn(C2CC2)c2cc(N3CCNCC3)c(F)cc2c1=O [Cip., ciprofloxacin, reference compound]	44

Same assay, conditions: C = concentration of comp. = 50,000 μL; DMSO control zone subtracted

Compound	inhibition zone, Staphylococcus aureus, C [millimeters]
CCOc1nc(-c2cc3cc(Br)ccc3oc2=O)cc(-c2ccc(Cl)cc2)c1C#N [Compound 1, 6-(6-bromo-2-oxo-2H-chromen-3-yl)-4-(4-chlorophenyl)-2-ethoxynicotinonitrile]	27
O=C(O)c1cn(C2CC2)c2cc(N3CCNCC3)c(F)cc2c1=O [Cip., ciprofloxacin, reference compound]	53

What follows are molecules tested on Pseudomonas aeruginosa (assay: agar plate disc-diffusion, antibacterial, Pseudomonas aeruginosa). Settings: A = concentration of comp. = 10,000 μL; DMSO control zone subtracted.
Type: cell-based
Experimental: as §1, §2

Compound	inhibition zone, Pseudomonas aeruginosa, A [millimeters]
CCOc1nc(-c2cc3cc(Br)ccc3oc2=O)cc(-c2ccc(Cl)cc2)c1C#N [Compound 1, 6-(6-bromo-2-oxo-2H-chromen-3-yl)-4-(4-chlorophenyl)-2-ethoxynicotinonitrile]	21
O=C(O)c1cn(C2CC2)c2cc(N3CCNCC3)c(F)cc2c1=O [Cip., ciprofloxacin, reference compound]	29

Same assay, conditions: B = concentration of comp. = 30.000 μL; DMSO control zone subtracted

Compound	inhibition zone, Pseudomonas aeruginosa, B [millimeters]
CCOc1nc(-c2cc3cc(Br)ccc3oc2=O)cc(-c2ccc(Cl)cc2)c1C#N [Compound 1, 6-(6-bromo-2-oxo-2H-chromen-3-yl)-4-(4-chlorophenyl)-2-ethoxynicotinonitrile]	26
O=C(O)c1cn(C2CC2)c2cc(N3CCNCC3)c(F)cc2c1=O [Cip., ciprofloxacin, reference compound]	30

Same assay, conditions: C = concentration of comp. = 50,000 μL; DMSO control zone subtracted

Compound	inhibition zone, Pseudomonas aeruginosa, C [millimeters]
CCOc1nc(-c2cc3cc(Br)ccc3oc2=O)cc(-c2ccc(Cl)cc2)c1C#N [Compound 1, 6-(6-bromo-2-oxo-2H-chromen-3-yl)-4-(4-chlorophenyl)-2-ethoxynicotinonitrile]	37
O=C(O)c1cn(C2CC2)c2cc(N3CCNCC3)c(F)cc2c1=O [Cip., ciprofloxacin, reference compound]	53

What follows are molecules tested on Escherichia coli (assay: agar plate disc-diffusion, antibacterial, Escherichia coli). Settings: A = concentration of comp. = 10,000 μL; DMSO control zone subtracted.
Type: cell-based
Experimental: as §1, §2

Compound	inhibition zone, Escherichia coli, A [millimeters]
CCOc1nc(-c2cc3cc(Br)ccc3oc2=O)cc(-c2ccc(Cl)cc2)c1C#N [Compound 1, 6-(6-bromo-2-oxo-2H-chromen-3-yl)-4-(4-chlorophenyl)-2-ethoxynicotinonitrile]	27
O=C(O)c1cn(C2CC2)c2cc(N3CCNCC3)c(F)cc2c1=O [Cip., ciprofloxacin, reference compound]	30

Same assay, conditions: B = concentration of comp. = 30.000 μL; DMSO control zone subtracted

Compound	inhibition zone, Escherichia coli, B [millimeters]
CCOc1nc(-c2cc3cc(Br)ccc3oc2=O)cc(-c2ccc(Cl)cc2)c1C#N [Compound 1, 6-(6-bromo-2-oxo-2H-chromen-3-yl)-4-(4-chlorophenyl)-2-ethoxynicotinonitrile]	37
O=C(O)c1cn(C2CC2)c2cc(N3CCNCC3)c(F)cc2c1=O [Cip., ciprofloxacin, reference compound]	39

Same assay, conditions: C = concentration of comp. = 50,000 μL; DMSO control zone subtracted

Compound	inhibition zone, Escherichia coli, C [millimeters]
CCOc1nc(-c2cc3cc(Br)ccc3oc2=O)cc(-c2ccc(Cl)cc2)c1C#N [Compound 1, 6-(6-bromo-2-oxo-2H-chromen-3-yl)-4-(4-chlorophenyl)-2-ethoxynicotinonitrile]	45
O=C(O)c1cn(C2CC2)c2cc(N3CCNCC3)c(F)cc2c1=O [Cip., ciprofloxacin, reference compound]	60

What follows are molecules tested on Aspergillus flavus (assay: agar plate disc-diffusion, antifungal, Aspergillus flavus). Settings: A = concentration of comp. = 10,000 μL; DMSO control zone subtracted.
Type: cell-based
Experimental: as §1, §2

Compound	inhibition zone, Aspergillus flavus, A [millimeters]
CCOc1nc(-c2cc3cc(Br)ccc3oc2=O)cc(-c2ccc(Cl)cc2)c1C#N [Compound 1, 6-(6-bromo-2-oxo-2H-chromen-3-yl)-4-(4-chlorophenyl)-2-ethoxynicotinonitrile]	20
O=C(O)c1cn(C2CC2)c2cc(N3CCNCC3)c(F)cc2c1=O [Cip., ciprofloxacin, reference compound]	29

Same assay, conditions: B = concentration of comp. = 30.000 μL; DMSO control zone subtracted

Compound	inhibition zone, Aspergillus flavus, B [millimeters]
CCOc1nc(-c2cc3cc(Br)ccc3oc2=O)cc(-c2ccc(Cl)cc2)c1C#N [Compound 1, 6-(6-bromo-2-oxo-2H-chromen-3-yl)-4-(4-chlorophenyl)-2-ethoxynicotinonitrile]	25
O=C(O)c1cn(C2CC2)c2cc(N3CCNCC3)c(F)cc2c1=O [Cip., ciprofloxacin, reference compound]	30

Same assay, conditions: C = concentration of comp. = 50,000 μL; DMSO control zone subtracted

Compound	inhibition zone, Aspergillus flavus, C [millimeters]
CCOc1nc(-c2cc3cc(Br)ccc3oc2=O)cc(-c2ccc(Cl)cc2)c1C#N [Compound 1, 6-(6-bromo-2-oxo-2H-chromen-3-yl)-4-(4-chlorophenyl)-2-ethoxynicotinonitrile]	34
O=C(O)c1cn(C2CC2)c2cc(N3CCNCC3)c(F)cc2c1=O [Cip., ciprofloxacin, reference compound]	42

What follows are molecules tested on Chrysosporium keratinophilum (assay: agar plate disc-diffusion, antifungal, Chrysosporium keratinophilum). Settings: A = concentration of comp. = 10,000 μL; DMSO control zone subtracted.
Type: cell-based
Experimental: as §1, §2

Compound	inhibition zone, Chrysosporiam keratinophilum, A [millimeters]
CCOc1nc(-c2cc3cc(Br)ccc3oc2=O)cc(-c2ccc(Cl)cc2)c1C#N [Compound 1, 6-(6-bromo-2-oxo-2H-chromen-3-yl)-4-(4-chlorophenyl)-2-ethoxynicotinonitrile]	24
O=C(O)c1cn(C2CC2)c2cc(N3CCNCC3)c(F)cc2c1=O [Cip., ciprofloxacin, reference compound]	29

Same assay, conditions: B = concentration of comp. = 30.000 μL; DMSO control zone subtracted

Compound	inhibition zone, Chrysosporiam keratinophilum, B [millimeters]
CCOc1nc(-c2cc3cc(Br)ccc3oc2=O)cc(-c2ccc(Cl)cc2)c1C#N [Compound 1, 6-(6-bromo-2-oxo-2H-chromen-3-yl)-4-(4-chlorophenyl)-2-ethoxynicotinonitrile]	27
O=C(O)c1cn(C2CC2)c2cc(N3CCNCC3)c(F)cc2c1=O [Cip., ciprofloxacin, reference compound]	30

Same assay, conditions: C = concentration of comp. = 50,000 μL; DMSO control zone subtracted

Compound	inhibition zone, Chrysosporiam keratinophilum, C [millimeters]
CCOc1nc(-c2cc3cc(Br)ccc3oc2=O)cc(-c2ccc(Cl)cc2)c1C#N [Compound 1, 6-(6-bromo-2-oxo-2H-chromen-3-yl)-4-(4-chlorophenyl)-2-ethoxynicotinonitrile]	39
O=C(O)c1cn(C2CC2)c2cc(N3CCNCC3)c(F)cc2c1=O [Cip., ciprofloxacin, reference compound]	53
